Laboratory results: ChEMBL document CHEMBL5058645, “Data for DCP probe JNJ-6204” (2022)

Experiments:
[1] = target: Discoidin domain-containing receptor 2 (Homo sapiens) (UniProt Q16832); experiment: DDR2(h) Kinase panel; settings: Compound concentration 1.0 uM, tested as the 2H-labelled form
[2] = target: Serine/threonine-protein kinase WNK1 (Homo sapiens) (UniProt Q9H4A3); experiment: WNK1(h) Kinase panel; settings: Compound concentration 1.0 uM, tested as the 2H-labelled form
[3] = target: Mitogen-activated protein kinase 1 (Homo sapiens) (UniProt P28482); experiment: MAPK1(h) Kinase panel; settings: Compound concentration 1.0 uM, tested as the 2H-labelled form
[4] = target: Mitogen-activated protein kinase kinase kinase 5 (Homo sapiens) (UniProt Q99683); experiment: ASK1(h) Kinase panel; settings: Compound concentration 1.0 uM, tested as the 2H-labelled form
[5] = target: SRSF protein kinase 1 (Homo sapiens) (UniProt Q96SB4); experiment: SRPK1(h) Kinase panel; settings: Compound concentration 1.0 uM, tested as the 2H-labelled form
[6] = target: Serine/threonine-protein kinase pim-3 (Homo sapiens) (UniProt Q86V86); experiment: Pim-3(h) Kinase panel; settings: Compound concentration 1.0 uM, tested as the 2H-labelled form
[7] = target: Serine/threonine-protein kinase PAK 5 (Homo sapiens) (UniProt Q9P286); experiment: PAK5(h) Kinase panel; settings: Compound concentration 1.0 uM, tested as the 2H-labelled form
[8] = target: Dual specificity protein kinase CLK3 (Homo sapiens) (UniProt P49761); experiment: CLK3(h) Kinase panel; settings: Compound concentration 1.0 uM, tested as the 2H-labelled form
[9] = target: Muscarinic acetylcholine receptor M4 (Homo sapiens) (UniProt P08173); settings: Compound concentration 10.0 uM, tested as the 2H-labelled form
[10] = target: 3-phosphoinositide-dependent protein kinase 1 (Homo sapiens) (UniProt O15530); experiment: PDK1(h) Kinase panel; settings: Compound concentration 1.0 uM, tested as the 2H-labelled form
[11] = target: Ephrin type-B receptor 3 (Homo sapiens) (UniProt P54753); experiment: EphB3(h) Kinase panel; settings: Compound concentration 1.0 uM, tested as the 2H-labelled form
[12] = target: Macrophage colony-stimulating factor 1 receptor (Homo sapiens, UniProt P07333); experiment: Fms(h) Kinase panel; settings: Compound concentration 1.0 uM, tested as the 2H-labelled form
[13] = target: Tyrosine-protein kinase Fyn (Homo sapiens) (UniProt P06241); experiment: Fyn(h) Kinase panel; settings: Compound concentration 1.0 uM, tested as the 2H-labelled form
[14] = target: Serine/threonine-protein kinase 33 (Homo sapiens) (UniProt Q9BYT3); experiment: STK33(h) Kinase panel; settings: Compound concentration 1.0 uM, tested as the 2H-labelled form
[15] = target: Serine/threonine-protein kinase MAK (Homo sapiens) (UniProt P20794); experiment: MAK(h) Kinase panel; settings: Compound concentration 1.0 uM, tested as the 2H-labelled form
[16] = target: Serine/threonine-protein kinase VRK2 (Homo sapiens) (UniProt Q86Y07); experiment: VRK2(h) Kinase panel; settings: Compound concentration 1.0 uM, tested as the 2H-labelled form
[17] = target: Protein kinase C zeta type (Homo sapiens) (UniProt Q05513); experiment: PKCzeta(h) Kinase panel; settings: Compound concentration 1.0 uM, tested as the 2H-labelled form
[18] = target: Protein-tyrosine kinase 6 (Homo sapiens) (UniProt Q13882); experiment: BRK(h) Kinase panel; settings: Compound concentration 1.0 uM, tested as the 2H-labelled form
[19] = target: Muscle, skeletal receptor tyrosine-protein kinase (Homo sapiens) (UniProt O15146); experiment: MuSK(h) Kinase panel; settings: Compound concentration 1.0 uM, tested as the 2H-labelled form
[20] = target: Mitogen-activated protein kinase kinase kinase 10 (Homo sapiens) (UniProt Q02779); experiment: MLK2(h) Kinase panel; settings: Compound concentration 1.0 uM, tested as the 2H-labelled form
[21] = target: Histamine H1 receptor (Homo sapiens) (UniProt P35367); settings: Compound concentration 10.0 uM, tested as the 2H-labelled form
[22] = target: Casein kinase II subunit alpha (Homo sapiens) (UniProt P68400); experiment: CK2alpha1(h) Kinase panel; settings: Compound concentration 1.0 uM, tested as the 2H-labelled form
[23] = target: Serine/threonine-protein kinase SIK3 (Homo sapiens) (UniProt Q9Y2K2); experiment: SIK3(h) Kinase panel; settings: Compound concentration 1.0 uM, tested as the 2H-labelled form
[24] = target: Ephrin type-A receptor 5 (Homo sapiens) (UniProt P54756); experiment: EphA5(h) Kinase panel; settings: Compound concentration 1.0 uM, tested as the 2H-labelled form
[25] = target: TGF-beta receptor type-1 (Homo sapiens) (UniProt P36897); experiment: TGFBR1(h) Kinase panel; settings: Compound concentration 1.0 uM, tested as the 2H-labelled form
[26] = target: Ephrin type-B receptor 1 (Homo sapiens) (UniProt P54762); experiment: EphB1(h) Kinase panel; settings: Compound concentration 1.0 uM, tested as the 2H-labelled form
[27] = target: Fibroblast growth factor receptor 2 (Homo sapiens) (UniProt P21802); experiment: FGFR2(h) Kinase panel; settings: Compound concentration 1.0 uM, tested as the 2H-labelled form
[28] = target: 5-hydroxytryptamine receptor 6 (Homo sapiens) (UniProt P50406); settings: Compound concentration 10.0 uM, tested as the 2H-labelled form
[29] = target: Mitogen-activated protein kinase 12 (Homo sapiens) (UniProt P53778); experiment: SAPK3(h) Kinase panel; settings: Compound concentration 1.0 uM, tested as the 2H-labelled form
[30] = target: Transcription initiation factor TFIID subunit 1-like (Homo sapiens) (UniProt Q8IZX4); experiment: TAF1L(h) Kinase panel; settings: Compound concentration 1.0 uM, tested as the 2H-labelled form
[31] = target: Serine/threonine-protein kinase 16 (Homo sapiens) (UniProt O75716); experiment: STK16(h) Kinase panel; settings: Compound concentration 1.0 uM, tested as the 2H-labelled form
[32] = target: Serine/threonine-protein kinase Sgk1 (Homo sapiens) (UniProt O00141); experiment: SGK(h) Kinase panel; settings: Compound concentration 1.0 uM, tested as the 2H-labelled form
[33] = target: eIF-2-alpha kinase GCN2 (Homo sapiens) (UniProt Q9P2K8); experiment: GCN2(h) Kinase panel; settings: Compound concentration 1.0 uM, tested as the 2H-labelled form
[34] = target: Serine/threonine-protein kinase pim-2 (Homo sapiens) (UniProt Q9P1W9); experiment: Pim-2(h) Kinase panel; settings: Compound concentration 1.0 uM, tested as the 2H-labelled form
[35] = target: Tyrosine-protein kinase Yes (Homo sapiens) (UniProt P07947); experiment: Yes(h) Kinase panel; settings: Compound concentration 1.0 uM, tested as the 2H-labelled form
[36] = target: D(2) dopamine receptor (Homo sapiens) (UniProt P14416); settings: Compound concentration 10.0 uM, tested as the 2H-labelled form
[37] = target: Receptor tyrosine-protein kinase erbB-2 (Homo sapiens) (UniProt P04626); experiment: ErbB2(h) Kinase panel; settings: Compound concentration 1.0 uM, tested as the 2H-labelled form
[38] = target: Receptor tyrosine-protein kinase erbB-4 (Homo sapiens) (UniProt Q15303); experiment: ErbB4(h) Kinase panel; settings: Compound concentration 1.0 uM, tested as the 2H-labelled form
[39] = target: Serine/threonine-protein kinase DCLK1 (Homo sapiens) (UniProt O15075); experiment: DCAMKL1(h) Kinase panel; settings: Compound concentration 1.0 uM, tested as the 2H-labelled form
[40] = target: Phosphatidylinositol 4,5-bisphosphate 3-kinase catalytic subunit beta isoform (Homo sapiens) (UniProt P42338); experiment: PI3 Kinase (p110b/p85a)(h) Kinase panel; settings: Compound concentration 1.0 uM, tested as the 2H-labelled form
[41] = target: Insulin receptor-related protein (Homo sapiens) (UniProt P14616); experiment: IRR(h) Kinase panel; settings: Compound concentration 1.0 uM, tested as the 2H-labelled form
[42] = target: MAP kinase-interacting serine/threonine-protein kinase 2 (Homo sapiens) (UniProt Q9HBH9); experiment: Mnk2(h) Kinase panel; settings: Compound concentration 1.0 uM, tested as the 2H-labelled form
[43] = target: Ribosomal protein S6 kinase alpha-6 (Homo sapiens) (UniProt Q9UK32); experiment: Rsk4(h) Kinase panel; settings: Compound concentration 1.0 uM, tested as the 2H-labelled form
[44] = target: Tyrosine-protein kinase Mer (Homo sapiens) (UniProt Q12866); experiment: Mer(h) Kinase panel; settings: Compound concentration 1.0 uM, tested as the 2H-labelled form
[45] = target: Protein-tyrosine kinase 2-beta (Homo sapiens) (UniProt Q14289); experiment: Pyk2(h) Kinase panel; settings: Compound concentration 1.0 uM, tested as the 2H-labelled form
[46] = target: Cyclin-dependent kinase 3 (Homo sapiens) (UniProt Q00526); experiment: CDK3/cyclinE(h) Kinase panel; settings: Compound concentration 1.0 uM, tested as the 2H-labelled form
[47] = target: Mitogen-activated protein kinase kinase kinase 2 (Homo sapiens) (UniProt Q9Y2U5); experiment: MEKK2(h) Kinase panel; settings: Compound concentration 1.0 uM, tested as the 2H-labelled form
[48] = target: Cyclin-dependent kinase-like 1 (Homo sapiens) (UniProt Q00532); experiment: CDKL1(h) Kinase panel; settings: Compound concentration 1.0 uM, tested as the 2H-labelled form
[49] = target: Eukaryotic translation initiation factor 2-alpha kinase 1 (Homo sapiens) (UniProt Q9BQI3); experiment: HRI(h) Kinase panel; settings: Compound concentration 1.0 uM, tested as the 2H-labelled form
[50] = target: Tyrosine-protein kinase FRK (Homo sapiens) (UniProt P42685); experiment: PTK5(h) Kinase panel; settings: Compound concentration 1.0 uM, tested as the 2H-labelled form
[51] = target: Calcium/calmodulin-dependent protein kinase type 1 (Homo sapiens) (UniProt Q14012); experiment: CaMKI(h) Kinase panel; settings: Compound concentration 1.0 uM, tested as the 2H-labelled form
[52] = target: Serine/threonine-protein kinase SBK1 (Homo sapiens) (UniProt Q52WX2); experiment: SBK1(h) Kinase panel; settings: Compound concentration 1.0 uM, tested as the 2H-labelled form

Measured: inhibition

Chain of TGF-beta receptor type-1 (Homo sapiens) (P36897 whole entry): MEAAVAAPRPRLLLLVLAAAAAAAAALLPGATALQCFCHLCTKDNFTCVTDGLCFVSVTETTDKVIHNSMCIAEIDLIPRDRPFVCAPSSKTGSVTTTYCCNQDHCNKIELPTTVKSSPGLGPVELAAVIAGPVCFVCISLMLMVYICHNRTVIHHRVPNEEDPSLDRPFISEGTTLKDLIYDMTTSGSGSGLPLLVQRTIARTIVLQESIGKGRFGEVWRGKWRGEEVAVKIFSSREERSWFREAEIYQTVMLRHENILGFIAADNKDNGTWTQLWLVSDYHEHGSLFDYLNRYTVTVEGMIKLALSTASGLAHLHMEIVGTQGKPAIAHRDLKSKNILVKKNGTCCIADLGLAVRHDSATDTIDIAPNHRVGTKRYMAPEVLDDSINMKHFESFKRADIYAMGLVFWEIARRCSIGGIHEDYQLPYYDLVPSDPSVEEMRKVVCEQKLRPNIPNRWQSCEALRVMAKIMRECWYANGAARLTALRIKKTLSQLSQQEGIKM
Chain of Serine/threonine-protein kinase Sgk1 (Homo sapiens) (O00141 whole entry): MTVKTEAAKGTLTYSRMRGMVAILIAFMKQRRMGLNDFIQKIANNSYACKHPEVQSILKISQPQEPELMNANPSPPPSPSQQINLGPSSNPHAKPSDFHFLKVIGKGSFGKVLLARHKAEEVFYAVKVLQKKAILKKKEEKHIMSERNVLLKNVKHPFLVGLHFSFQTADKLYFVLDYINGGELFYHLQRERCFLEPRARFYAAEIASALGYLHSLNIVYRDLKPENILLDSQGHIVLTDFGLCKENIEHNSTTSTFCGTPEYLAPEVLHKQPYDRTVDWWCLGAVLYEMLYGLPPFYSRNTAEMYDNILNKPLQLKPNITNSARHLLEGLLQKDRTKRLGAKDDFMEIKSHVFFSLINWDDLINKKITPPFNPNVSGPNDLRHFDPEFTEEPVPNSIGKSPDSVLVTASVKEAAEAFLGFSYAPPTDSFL
Chain of D(2) dopamine receptor (Homo sapiens) (P14416 whole entry): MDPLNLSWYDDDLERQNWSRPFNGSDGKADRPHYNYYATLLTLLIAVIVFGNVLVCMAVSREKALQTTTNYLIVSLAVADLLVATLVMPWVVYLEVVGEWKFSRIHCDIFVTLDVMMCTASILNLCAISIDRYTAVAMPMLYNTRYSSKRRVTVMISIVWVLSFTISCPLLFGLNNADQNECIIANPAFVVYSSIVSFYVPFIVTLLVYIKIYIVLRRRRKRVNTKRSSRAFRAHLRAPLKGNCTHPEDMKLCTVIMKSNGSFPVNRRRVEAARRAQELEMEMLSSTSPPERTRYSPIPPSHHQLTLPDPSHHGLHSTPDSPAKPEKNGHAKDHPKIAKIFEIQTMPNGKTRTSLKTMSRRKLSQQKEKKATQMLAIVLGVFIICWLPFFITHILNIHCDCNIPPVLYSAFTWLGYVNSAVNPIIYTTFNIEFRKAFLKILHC
Chain of Serine/threonine-protein kinase 16 (Homo sapiens) (O75716 whole entry): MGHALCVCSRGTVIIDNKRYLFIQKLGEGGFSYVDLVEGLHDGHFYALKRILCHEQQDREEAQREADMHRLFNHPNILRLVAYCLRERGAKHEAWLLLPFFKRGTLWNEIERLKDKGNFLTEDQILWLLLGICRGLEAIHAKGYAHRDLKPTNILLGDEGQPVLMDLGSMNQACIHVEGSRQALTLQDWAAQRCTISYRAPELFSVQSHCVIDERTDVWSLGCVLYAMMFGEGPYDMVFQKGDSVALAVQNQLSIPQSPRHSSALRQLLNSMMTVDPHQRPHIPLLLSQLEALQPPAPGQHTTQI
Chain of Macrophage colony-stimulating factor 1 receptor (P07333 whole entry): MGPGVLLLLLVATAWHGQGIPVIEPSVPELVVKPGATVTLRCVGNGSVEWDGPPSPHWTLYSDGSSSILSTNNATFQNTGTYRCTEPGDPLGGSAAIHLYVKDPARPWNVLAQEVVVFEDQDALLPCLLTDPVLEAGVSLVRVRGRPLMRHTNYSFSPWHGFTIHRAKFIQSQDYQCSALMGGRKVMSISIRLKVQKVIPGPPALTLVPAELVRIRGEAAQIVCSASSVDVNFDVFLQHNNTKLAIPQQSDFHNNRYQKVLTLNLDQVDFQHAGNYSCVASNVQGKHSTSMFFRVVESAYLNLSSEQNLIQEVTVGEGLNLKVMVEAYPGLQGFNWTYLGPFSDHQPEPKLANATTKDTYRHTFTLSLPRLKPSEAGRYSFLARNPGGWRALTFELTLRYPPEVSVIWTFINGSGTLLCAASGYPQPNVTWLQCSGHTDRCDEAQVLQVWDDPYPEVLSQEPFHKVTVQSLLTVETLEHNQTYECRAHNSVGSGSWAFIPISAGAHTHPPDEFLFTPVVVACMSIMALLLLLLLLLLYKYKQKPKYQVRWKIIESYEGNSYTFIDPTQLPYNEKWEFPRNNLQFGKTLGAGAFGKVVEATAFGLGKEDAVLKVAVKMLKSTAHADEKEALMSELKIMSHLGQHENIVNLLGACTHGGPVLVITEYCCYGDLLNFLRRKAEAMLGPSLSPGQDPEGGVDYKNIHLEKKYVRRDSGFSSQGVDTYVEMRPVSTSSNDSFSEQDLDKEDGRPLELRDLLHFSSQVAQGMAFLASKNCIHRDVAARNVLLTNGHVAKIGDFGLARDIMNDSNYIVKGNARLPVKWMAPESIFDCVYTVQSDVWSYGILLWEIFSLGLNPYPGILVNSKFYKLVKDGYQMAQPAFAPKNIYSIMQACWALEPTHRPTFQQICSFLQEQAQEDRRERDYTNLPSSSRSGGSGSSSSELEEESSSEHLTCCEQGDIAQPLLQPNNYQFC
Chain of Muscle, skeletal receptor tyrosine-protein kinase (Homo sapiens) (O15146 whole entry): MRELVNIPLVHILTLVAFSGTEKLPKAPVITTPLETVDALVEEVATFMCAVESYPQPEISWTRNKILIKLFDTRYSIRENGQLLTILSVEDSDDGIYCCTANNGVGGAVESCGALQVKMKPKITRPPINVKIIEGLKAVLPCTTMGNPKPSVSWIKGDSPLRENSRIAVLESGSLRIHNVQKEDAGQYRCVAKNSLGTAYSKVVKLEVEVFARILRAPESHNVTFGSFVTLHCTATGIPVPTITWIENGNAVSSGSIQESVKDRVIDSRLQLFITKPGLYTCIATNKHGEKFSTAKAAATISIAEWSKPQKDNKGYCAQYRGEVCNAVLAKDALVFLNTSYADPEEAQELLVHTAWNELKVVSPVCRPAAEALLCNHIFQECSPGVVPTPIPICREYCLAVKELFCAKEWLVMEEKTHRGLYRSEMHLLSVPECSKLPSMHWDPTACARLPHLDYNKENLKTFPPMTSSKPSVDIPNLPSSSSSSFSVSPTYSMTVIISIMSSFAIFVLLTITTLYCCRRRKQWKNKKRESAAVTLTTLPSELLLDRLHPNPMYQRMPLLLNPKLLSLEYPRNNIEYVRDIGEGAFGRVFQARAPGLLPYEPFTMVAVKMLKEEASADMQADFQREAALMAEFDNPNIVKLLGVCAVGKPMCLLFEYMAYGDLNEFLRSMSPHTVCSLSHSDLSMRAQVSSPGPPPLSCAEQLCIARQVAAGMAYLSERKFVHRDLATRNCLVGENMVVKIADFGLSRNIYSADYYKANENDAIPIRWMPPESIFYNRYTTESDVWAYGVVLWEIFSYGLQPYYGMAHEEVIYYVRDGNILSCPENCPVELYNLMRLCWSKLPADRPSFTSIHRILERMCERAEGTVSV
Chain of Casein kinase II subunit alpha (Homo sapiens) (P68400 whole entry, looked up): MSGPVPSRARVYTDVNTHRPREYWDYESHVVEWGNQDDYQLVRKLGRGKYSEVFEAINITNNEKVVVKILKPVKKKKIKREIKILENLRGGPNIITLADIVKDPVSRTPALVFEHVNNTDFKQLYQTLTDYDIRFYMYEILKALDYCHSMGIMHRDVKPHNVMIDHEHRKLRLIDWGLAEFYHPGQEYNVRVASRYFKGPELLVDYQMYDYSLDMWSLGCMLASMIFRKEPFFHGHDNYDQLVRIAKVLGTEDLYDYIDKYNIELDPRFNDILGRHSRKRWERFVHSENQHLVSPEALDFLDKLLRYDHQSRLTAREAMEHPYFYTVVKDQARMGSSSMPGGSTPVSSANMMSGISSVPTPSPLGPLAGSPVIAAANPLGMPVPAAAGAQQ
Chain of Ribosomal protein S6 kinase alpha-6 (Homo sapiens) (Q9UK32 whole entry): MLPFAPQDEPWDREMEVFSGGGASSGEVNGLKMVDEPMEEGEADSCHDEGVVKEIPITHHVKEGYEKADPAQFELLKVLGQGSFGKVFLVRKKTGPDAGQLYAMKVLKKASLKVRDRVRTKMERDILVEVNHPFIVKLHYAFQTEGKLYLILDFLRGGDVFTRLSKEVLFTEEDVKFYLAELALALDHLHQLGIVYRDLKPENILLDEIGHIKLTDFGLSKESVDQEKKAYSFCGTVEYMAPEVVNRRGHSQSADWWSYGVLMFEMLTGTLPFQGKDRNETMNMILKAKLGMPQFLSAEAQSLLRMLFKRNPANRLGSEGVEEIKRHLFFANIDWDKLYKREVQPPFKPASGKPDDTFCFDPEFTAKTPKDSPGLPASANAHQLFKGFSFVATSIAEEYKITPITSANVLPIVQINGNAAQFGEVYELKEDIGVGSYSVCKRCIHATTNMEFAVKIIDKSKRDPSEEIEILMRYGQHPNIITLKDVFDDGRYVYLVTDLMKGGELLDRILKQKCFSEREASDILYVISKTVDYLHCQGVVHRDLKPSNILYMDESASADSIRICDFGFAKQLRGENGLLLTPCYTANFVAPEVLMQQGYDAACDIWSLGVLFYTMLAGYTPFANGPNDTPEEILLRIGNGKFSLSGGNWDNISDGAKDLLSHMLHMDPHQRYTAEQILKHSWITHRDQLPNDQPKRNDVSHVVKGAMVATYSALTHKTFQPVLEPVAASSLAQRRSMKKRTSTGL
Chain of Cyclin-dependent kinase 3 (Homo sapiens) (Q00526 whole entry, looked up): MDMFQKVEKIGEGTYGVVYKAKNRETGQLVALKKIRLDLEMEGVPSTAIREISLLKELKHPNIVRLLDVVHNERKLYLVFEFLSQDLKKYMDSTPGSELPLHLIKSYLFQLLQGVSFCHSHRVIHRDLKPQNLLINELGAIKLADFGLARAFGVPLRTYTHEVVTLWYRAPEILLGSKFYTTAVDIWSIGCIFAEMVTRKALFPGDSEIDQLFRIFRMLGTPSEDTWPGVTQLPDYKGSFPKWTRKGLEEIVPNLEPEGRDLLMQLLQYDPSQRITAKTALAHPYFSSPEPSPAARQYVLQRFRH

CC1(C)Cn2nc(-c3ccc(F)cn3)c(-c3ccnc4[nH]ncc34)c2CO1
inactive: [1] 8% | [2] 7% | [3] 20% | [4] 12% | [5] 2% | [6] 4% | [7] 2% | [8] -9% | [9] 1.83% | [10] 9% | [11] 14% | [12] 0% | [13] 20% | [14] 5% | [15] 10% | [16] 8% | [17] 5% | [18] -1% | [19] -7% | [20] 8% | [21] -9.94% | [22] 2% | [23] -1% | [24] -3% | [25] 43% | [26] 3% | [27] 11% | [28] -1.55% | [29] 28% | [30] 3% | [31] 8% | [32] 11% | [33] -6% | [34] -4% | [35] -6% | [36] 4.12% | [37] 9% | [38] 19% | [39] 10% | [40] 0% | [41] -4% | [42] 20% | [43] 23% | [44] 6% | [45] -2% | [46] -8% | [47] 5% | [48] 11% | [49] -6% | [50] 11% | [51] 5% | [52] -1%
